According to ChEMBL document CHEMBL1122982, “Conformational factors in cardiac glycoside activity” (1985):

organism: Cavia porcellus; assay: Relative […] activity evaluated in guinea pig left atria.; type: functional

SMILES | Relative ionotropic activity
C[C@H]1O[C@H]2O[C@@H]3C[C@@H]4CC[C@@H]5[C@H](CC[C@]6(C)[C@@H](C7=CC(=O)OC7)CC[C@]56O)[C@@]4(C)C[C@H]3O[C@@]2(O)[C@@H](O)[C@H]1O | 1
C[C@@H]1O[C@@H](O[C@H]2CC[C@@]3(C)[C@@H](CC[C@@H]4[C@@H]3CC[C@]3(C)[C@@H](C5=CC(=O)OC5)CC[C@@]43O)C2)C[C@H](O)[C@@H]1O | 15
C[C@]12CC[C@H](O)C[C@H]1CC[C@@H]1[C@@H]2CC[C@]2(C)[C@@H](C3=CC(=O)OC3)CC[C@]12O (stereo in doubt) [DIGITOXIGENIN] | 1
C[C@]12CC[C@H](O)C[C@H]1CC[C@@H]1[C@@H]2CC[C@]2(C)[C@@H](C3=CC(=O)OC3)CC[C@]12O (stereo in doubt; V) [DIGITOXIGENIN] | 1.2
C[C@@H]1O[C@@H](O[C@H]2CC[C@@]3(C)[C@H](CC[C@@H]4[C@@H]3CC[C@]3(C)[C@@H](C5=CC(=O)OC5)CC[C@]43O)C2)[C@H](O)[C@H](O)[C@H]1O (stereo in doubt; X) | 3
C[C@@H]1O[C@@H](O[C@H]2CC[C@@]3(C)[C@H](CC[C@@H]4[C@@H]3CC[C@]3(C)[C@@H](C5=CC(=O)OC5)CC[C@]43O)C2)[C@H](O)[C@H](O)[C@H]1O (stereo in doubt; form 1) | 22
C[C@@H]1C[C@H](O)[C@]2(O)O[C@@H]3C[C@@]4(C)[C@@H](CC[C@@H]5[C@@H]4CC[C@]4(C)[C@@H](C6=CC(=O)OC6)CC[C@]54O)C[C@H]3O[C@@H]2O1 (stereo in doubt; form 1) [Gomphoside] | 23
C[C@@H]1O[C@@H](O[C@H]2CC[C@@]3(C)[C@H](CC[C@@H]4[C@@H]3CC[C@]3(C)[C@@H](C5=CC(=O)OC5)CC[C@]43O)C2)[C@H](O)[C@H](O)[C@H]1O (stereo in doubt; form 2) | 9
C[C@@H]1C[C@H](O)[C@]2(O)O[C@@H]3C[C@@]4(C)[C@@H](CC[C@@H]5[C@@H]4CC[C@]4(C)[C@@H](C6=CC(=O)OC6)CC[C@]54O)C[C@H]3O[C@@H]2O1 (stereo in doubt; form 2) [Gomphoside] | 0.2
C[C@@H]1CC(=O)[C@]2(O)O[C@@H]3C[C@@]4(C)[C@@H](CC[C@@H]5[C@@H]4CC[C@]4(C)[C@@H](C6=CC(=O)OC6)CC[C@]54O)C[C@H]3O[C@@H]2O1 [Didehydro Gomphoside] | 2.5
